Data published in patent publication US20190358174A1, “ACTIVE AGENTS AGAINST PROTOZOA” (Christian-Albrechts-Universität zu Kiel, priority 2016, published 2019).
Where two headings read alike, the source gives them in different places.

How the values were obtained:
FNT wild-type = target: T1, FNT wild-type (Plasmodium falciparum, UniProt O77389); test: yeast test system, 14C-L-lactate uptake, FNT wild-type expressed in Saccharomyces cerevisiae; type: cell-based
T1 construct: expressed in transfected cells; host or cells: Saccharomyces cerevisiae W303-1A jen1Δ ady2Δ, plasmid pDR196 (PMA promoter)
Source text: (§1) The FNT of the wild-type plasmodium (available under accession number PF3D7_0316600 in the data bank PlasmoDB) and of the resistant plasmodia (position of the mutation in the open reading frame: guanine 319 to adenine) were expressed in the yeast Saccharomyces cerevisiae W303-1A jen1Δ ady2Δ from plasmid pDR196 (PMA promoter). In the yeast, the endogenous genes for the monocarboxylate transporter Jenlp (sequence accession No. CAA82062 NCBI) and Ady2p (sequence accession No. KZV 12856) were deleted (obtained from M. Casal, Universidade do Minho, Portugal).
This yeast was grown in SD medium with addition of adenine, histidine, leucine, tryptophan and 2% (wt/v) glucose at 30° C. up to an OD600 of 0.8 to 1.0, harvested by centrifugation and washed once with water and centrifuged down again, and suspended in 50 mM HEPES/TRIS (pH 6.8) and adjusted to an OD600 of 50±10% and stored on ice. For contacting with one of the compounds a compound of one step of a dilution series in DMSO was provided in a reaction vessel and onto this 80 μL of the yeast suspension were pipetted. […] The lactate concentration obtained was 1 mM. After an incubation of 30 s the uptake of lacatate was stopped by a rapid dilution by means of adding of 1 ml ice cold water. From the yeast suspension diluted this way the yeast cells were brought onto a filter membrane by vacuum filtration, washed with 7 ml cold water and transferred with the filter membrane into 3 ml scintillation cocktail. After 24 h of incubation at 18° C. in the scintillation cocktail, in which the cells were lysed, the amount of radioactively labelled lactate was measured by means of a scintillation counter. The total amount of lactate which was taken up by the yeast was calculated from the measured amount of radioactively labelled lactate. As a positive control the yeast was treated equally in parallel testing with DMSO without one of the compounds and was regarded as 100% FNT activity, respectively 0% inhibition. In testings with the compound a lower amount of lactate taken up was found in comparison to the parallel positive control. As a negative control yeast was treated in parallel in which the endogenous genes for the monocarboxylate transporters Jenlp and Ady2p were deleted, but the FNT from plasmodium was not expressed. This negative control was regarded as 0% FNT activity, respectively 100% inhibition.
(§2) As a representative for a Formiate-Nitrit-Transporter protein (FNT) from protozoa, the FNT of Plasmodium falciparum as wild-type and as […] mutant was used, which were each expressed in yeast and incubated with dilutions of the compounds to be tested as described in Example 1.

Gly107Ser mutant of FNT = target: T2, Gly107Ser mutant of FNT (Plasmodium falciparum, UniProt O77389, G107S); test: yeast test system, 14C-L-lactate uptake, FNT Gly107Ser mutant expressed in Saccharomyces cerevisiae; type: cell-based
T2 construct: expressed in transfected cells; host or cells: Saccharomyces cerevisiae W303-1A jen1Δ ady2Δ, plasmid pDR196 (PMA promoter)
Source text: as §1
This yeast was grown in SD medium with addition of adenine, histidine, leucine, tryptophan and 2% (wt/v) glucose at 30° C. up to an OD600 of 0.8 to 1.0, harvested by centrifugation and washed once with water and centrifuged down again, and suspended in 50 mM HEPES/TRIS (pH 6.8) and adjusted to an OD600 of 50±10% and stored on ice. For contacting with one of the compounds a compound of one step of a dilution series in DMSO was provided in a reaction vessel and onto this 80 μL of the yeast suspension were pipetted. After an incubation on ice for 15 to 20 min 20 μL 5 mM Na-L-lacate plus 0.04 μCi radioactively labelled L-(1-^14C) lactate was added. The lactate concentration obtained was 1 mM. After an incubation of 30 s the uptake of lacatate was stopped by a rapid dilution by means of adding of 1 ml ice cold water. From the yeast suspension diluted this way the yeast cells were brought onto a filter membrane by vacuum filtration, washed with 7 ml cold water and transferred with the filter membrane into 3 ml scintillation cocktail. After 24 h of incubation at 18° C. in the scintillation cocktail, in which the cells were lysed, the amount of radioactively labelled lactate was measured by means of a scintillation counter. The total amount of lactate which was taken up by the yeast was calculated from the measured amount of radioactively labelled lactate. As a positive control the yeast was treated equally in parallel testing with DMSO without one of the compounds and was regarded as 100% FNT activity, respectively 0% inhibition. In testings with the compound a lower amount of lactate taken up was found in comparison to the parallel positive control. As a negative control yeast was treated in parallel in which the endogenous genes for the monocarboxylate transporters Jenlp and Ady2p were deleted, but the FNT from plasmodium was not expressed. This negative control was regarded as 0% FNT activity, respectively 100% inhibition.
as §2

Plasmodium falciparum = test: growth of Plasmodium falciparum culture (parasitaemia by FACS); type: cell-based
Description: The effect of the following compounds on the growth of Plasmodium falciparum was tested using cultivated plasmodia:
The plasmodium culture was maintained in 5% 0+ erythrocytes in RPMI 1640 medium with 0.5% Albumax at 37° C. […] A change of medium was made after 24 h and the compounds were added freshly.

[1] = test system: resistant plasmodia (FNT mutation Gly107Ser); test: microbe, parasite or virus in culture; type: cell-based, Plasmodium falciparum; details: for IC50: Plasmodium falciparum, read-out: plasmodium culture IC50 against Gly107Ser mutant
[2] = yeast test system, 15 to 20 min preincubation, 1 mM lactate, pH 6.8, read-out: IC50 against FNT wild-type
[3] = Plasmodium falciparum; read-out: plasmodium culture IC50 against wild-type
[4] = Plasmodium falciparum; 48 h after addition, parasitaemia by FACS; read-out: inhibitory effect IC50 on the growth of the plasmodium culture

T1 sequence (O77389 whole entry): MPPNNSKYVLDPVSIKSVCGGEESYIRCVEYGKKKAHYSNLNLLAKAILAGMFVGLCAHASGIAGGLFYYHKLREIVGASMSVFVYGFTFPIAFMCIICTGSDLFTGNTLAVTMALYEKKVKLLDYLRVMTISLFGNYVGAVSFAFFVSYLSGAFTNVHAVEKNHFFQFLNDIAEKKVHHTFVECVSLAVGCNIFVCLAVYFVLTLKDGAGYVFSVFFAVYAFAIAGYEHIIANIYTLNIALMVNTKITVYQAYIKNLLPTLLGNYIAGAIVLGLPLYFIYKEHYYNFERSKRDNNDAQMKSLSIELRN
T2 sequence (O77389 whole entry G107S): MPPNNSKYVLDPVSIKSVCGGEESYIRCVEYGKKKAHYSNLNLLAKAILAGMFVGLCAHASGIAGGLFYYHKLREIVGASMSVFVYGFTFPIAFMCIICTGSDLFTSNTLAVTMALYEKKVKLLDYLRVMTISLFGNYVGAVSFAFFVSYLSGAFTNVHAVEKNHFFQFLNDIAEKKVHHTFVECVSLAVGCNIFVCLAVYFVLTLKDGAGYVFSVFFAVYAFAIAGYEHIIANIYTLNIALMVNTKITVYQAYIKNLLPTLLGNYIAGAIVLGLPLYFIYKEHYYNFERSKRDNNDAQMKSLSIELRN

In the case of CC(=O)C=C(O)C(F)(F)C(F)(F)F [BH-204], the IC50 (FNT wild-type; [2]) is reported as 1900 nM and the IC50 (Gly107Ser mutant of FNT; yeast test system, 15 to 20 min preincubation, 1 mM lactate, pH 6.8, read-out: IC50 against Gly107Ser mutant of FNT) is reported as 8100 nM.
CC(C)(O)CC(=O)/C=C(\O)C(F)(F)C(F)(F)F [BH-262] gave an IC50 (Plasmodium falciparum; [3]) of 10000 nM and an IC50 [1] of 70000 nM.
In the case of Cn1ccc(C(=O)/C=C(\O)C(F)(F)C(F)(F)F)c1 [BH-269], the IC50 (Gly107Ser mutant of FNT) is reported as 15000 nM.
O=C(/C=C(\O)C(F)(F)C(F)(F)F)/C=C/c1ccccc1 [BH-292] gave an IC50 (FNT wild-type; [2]) of 260 nM and an IC50 (Gly107Ser mutant of FNT) of 25000 nM.
COc1ccc(C(=O)/C=C(\O)C(F)(F)C(F)(F)F)cc1 [BH-296] was tested, and the IC50 (Plasmodium falciparum; [3]) was 3400 nM, the IC50 [1] was 8900 nM and the “effect against the resistant parasites (in words)” value ([1]; pharmaceutically acceptable concentration range) was “effective against the resistant parasites”. For the same molecule, the IC50 (FNT wild-type; [2]) was 140 nM and the “inhibition of the Gly107Ser mutant (in words)” value (Gly107Ser mutant of FNT) was “inhibit the Gly107Ser mutant significantly”.
O=C(/C=C(\O)C(F)(F)C(F)(F)F)c1ccc(Cl)cc1 [BH-301] was tested, and the IC50 (FNT wild-type) was 120 nM, the IC50 (Gly107Ser mutant of FNT) was 5800 nM and the “inhibition of the Gly107Ser mutant (in words)” value (Gly107Ser mutant of FNT) was “inhibit the Gly107Ser mutant significantly”.
O=C(/C=C(\O)C(F)(F)C(F)(F)F)c1cc2ccccc2o1 [BH-306] gave an IC50 (FNT wild-type; [2]) of 180 nM and an IC50 (Gly107Ser mutant of FNT) of 15000 nM.
In the case of O=C(/C=C(\O)C(F)(F)C(F)(F)F)c1ccc(Cl)cc1O [BH-317], the “inhibition of the plasmodium culture (in words)” value (Plasmodium falciparum) is reported as “effective inhibition”, the IC50 (Plasmodium falciparum; [3]) is reported as 370 nM and the “inhibition of the FNT in the yeast test system (in words)” value (shortened to “inhibition of the FNT”) (FNT wild-type) is reported as “effective inhibition”. For the same molecule, the IC50 (FNT wild-type; [2]) was 120 nM.
In the case of COc1ccc(CCC(=O)/C=C(\O)C(F)(F)C(F)(F)F)cc1 [BH-324.2], the IC50 (FNT wild-type) is reported as 160 nM, the IC50 (Gly107Ser mutant of FNT) is reported as 6300 nM and the “inhibition of the Gly107Ser mutant (in words)” value (Gly107Ser mutant of FNT) is reported as “inhibit the Gly107Ser mutant significantly”.
For CCOc1ccc(C(=O)/C=C(\O)C(F)(F)C(F)(F)F)c(O)c1 [BH-326], the “inhibition of the plasmodium culture (in words)” value (Plasmodium falciparum) was “effective inhibition”, the IC50 (Plasmodium falciparum; [3]) was 50 nM and the “inhibition of the FNT” value (FNT wild-type) was “effective inhibition”. For the same molecule, the IC50 (FNT wild-type; [2]) was 240 nM.
For CC(C)Oc1ccc(C(=O)/C=C(\O)C(F)(F)C(F)(F)F)c(O)c1 [BH-340], the “inhibition of the plasmodium culture (in words)” value (Plasmodium falciparum) was “effective inhibition”, the IC50 (Plasmodium falciparum; [3]) was 100 nM and the “inhibition of the FNT” value (FNT wild-type) was “effective inhibition”. The IC50 (FNT wild-type; [2]) was 400 nM.
Work on COc1ccc(C(=O)/C=C(\O)C(F)(F)C(F)(F)C(F)(F)F)c(O)c1 [BH-362] yielded an IC50 (Plasmodium falciparum; Plasmodium falciparum, read-out: plasmodium culture IC50 against wild-type) of 570 nM and an IC50 (FNT wild-type; [2]) of 250 nM.
Molecule O=C(/C=C(\O)C(F)(F)C(F)(F)F)c1ccc(OCc2ccccc2)cc1O [BH-388] has an IC50 (FNT wild-type; [2]) of 890 nM.
For O=C1CC(O)(C(F)(F)C(F)(F)F)Oc2ccccc21 (stereo not shown) [MMV000972, reference compound], the IC50 (Plasmodium falciparum; [4]) was 1700 nM.
COc1ccc2c(c1)OC(O)(C(F)(F)C(F)(F)F)CC2=O (stereo not shown) [MMV007839, reference compound] gave an IC50 (Plasmodium falciparum; [4]) of 140 nM, an IC50 (FNT wild-type; preincubation 20 min, read-out: IC50 of lactate transport) of 170 nM and an IC50 (FNT wild-type; preincubation 24 h prior to addition of lactate, read-out: IC50 of lactate transport) of 15 nM. For the same molecule, the “reversibility of FNT inhibition by washing of the cells” value (FNT wild-type; washing with 50 mM HEPES-Tris, pH 6.8) was “could not be reduced by washing”.
